The values that follow come from a melting point compilation (Tetko et al.; mined from patent text by program, amines drawn as free bases though some values may be those of a salt).

In general, melting point refers to the temperature, or range, at which the solid turns liquid.

SMILES strings stand for the structures.

`CC(=O)Nc1c(C(=O)c2cc(F)cc(F)c2)[nH]c2cc(Cl)ccc12` gave a melting point of 232 to 233 °C.

In turn, `CCc1nn(-c2c(Cl)cc(C(F)(F)F)cc2Cl)c(Cl)c1-c1nc(C#N)c(C#N)[nH]1` registered a melting point of 75 to 78 °C.

`CC(C)N1C(=O)C(NC(=O)CCC2CCCCC2)N=C(N(C)C)c2ccccc21` (stereo not drawn) showed a melting point of 209 to 210 °C.

For the molecule `CC(C)(C)OOC(C)(CCC(=O)NNC(=O)c1ccccc1)OOC(C)(C)C`, the melting point was 147 to 149 °C.

`CNC(=O)c1ccc(C=CC(=O)NCC(=O)N(C)c2ccc(C)c(COc3cccc4c3nc(SC)n4C)c2C)cc1` displayed a melting point of 224 to 225 °C.

With `COc1ccc(C(=O)c2ccco2)cc1OC`, the melting point lay in the range of 112 to 114 °C.

`CC(C)NC(=O)C[C@@H]1CCCNc2ccccc21` had a melting point of 91 to 92 °C.

For the molecule `Cc1ccc(N2C(=O)C(O)=C(C(=O)c3ccc(C(C)C)cc3)C2c2ccc(N3CCOCC3)cc2)nn1` (stereo not drawn), the melting point lay in the range of 293 to 294 °C.

The molecule `CCCc1c(OCCCCCc2c(Cl)c(Cl)cc(OC)c2OC)ccc(C(=O)OC)c1O` registered a melting point of 113 to 115 °C.

`CC(C)C(=O)OCCn1nc(-c2cc(C(C)(C)C)c(O)c(C(C)(C)C)c2)c2cccnc21` registered a melting point of 94 to 96 °C.

The molecule `C#CC1C2=C(C(=O)CCC2)c2ccc(OC(=O)C(C)(C)C)cc2N1C(=O)Oc1ccccc1` (stereo not drawn) had a melting point of 140 to 142 °C.

For the molecule `CC(=O)c1c(-c2ccc(Cl)cc2)c(-c2ccc(Cl)cc2)nn(CCO)c1=O`, the melting point lay within 191 to 193 °C.

Molecule `CCc1cccnc1NC(=O)OC(C)(C)C` registered a melting point of 101 to 102 °C.

Molecule `CN1CCC(c2cccc3ccc(C(=O)NCCCc4ccc(Cl)cc4)cc23)CC1` registered a melting point of 132 to 134 °C.

In turn, `O=C(O)CN1CCN2c3ccccc3Cc3ccccc3C2C1` (stereo not drawn) came in with a melting point of 162 to 163 °C.

In the case of `CC12CC(O)CCC1CCC1C2CCC2(C)C(O)C(N3CCCCC3)CC12` (stereo not drawn), the melting point fell in the range of 215 to 219 °C.

`CC(C)OCCOc1c(-c2ccc(S(C)(=O)=O)cc2)cnn(-c2ccc(F)c(F)c2)c1=O`: the melting point lay in the range of 105 to 107 °C.

Consider `CC1(C)c2cc(OCc3ccccc3)ccc2OC1CO` (stereo not drawn), for which the melting point is 55 to 58 °C.

Regarding `Cc1cnc(CNC(=O)CCc2cnoc2-c2ccc(Cl)cc2)cn1`, the melting point lay in the range of 124 to 125 °C.

With `CC#CCC/C=C/CC(=O)O`, the melting point was in the range of 43 to 45 °C.

`Cc1cc(Oc2ncc(C(F)(F)F)cc2Cl)nn1C(=O)Nc1ccc(C(F)(F)F)cc1` displayed a melting point of 164 to 167 °C.

As for `COc1cccc(C(=NO)c2sccc2Br)c1`, the melting point lay in the range of 100 to 103 °C.

Turning to `CC(=O)OC(c1ccc(OCc2ccccc2)cc1)C(F)(F)F` (stereo not drawn), the melting point was in the range of 85 to 87 °C.

On to `CC(=O)N(C#N)C1(c2ccc(OCc3ccc4ccccc4n3)cc2)CCCCC1`, for which the melting point worked out at 90 °C.

For the molecule `Cc1cc(I)ccc1Nc1c(-c2nnc(N)o2)cc2c(ncn2C)c1F`, the melting point was 258 to 260 °C.

Regarding `COc1ccc(CS[C@@H]2C[C@@H](C(=O)N(C)OC)N(S(=O)(=O)c3ccc4ccccc4c3)C2)cc1`, the melting point lay within 101 to 102 °C.

The molecule `CC(=O)Nc1ccc(C(=O)CBr)cc1` came in with a melting point of 192 °C.

For the molecule `CCNc1ccc(C2(C)C(=O)Nc3cc(Cl)cc(Cl)c3C2=O)cc1` (stereo not drawn), the melting point was 197 to 198 °C.

`CC(C)COP(C)(=O)c1ccccc1S(N)(=O)=O` (stereo not drawn) registered a melting point of 50 to 52 °C.

Regarding `Cc1ccc(COC(=O)N2CCC[C@H]2C(=O)N[C@H](CO)C(C)C)cc1`, the melting point is 122 to 124 °C.

For the molecule `C[C@]1(COC(=O)N2CCC(Oc3ccc(C(F)(F)F)cc3)CC2)Cn2cc([N+](=O)[O-])nc2O1`, the melting point was 165 to 166 °C.

`CC12CCCc3cc(Nc4ccc(C(=O)O)cc4)cc(c31)CCC2` had a melting point of 232 to 234 °C.

For the molecule `NCc1ccc(-c2csc(N=C(N)N)n2)o1`, the melting point was in the range of 160 to 163 °C.

Molecule `COc1c(C(C)(C)C)cc(COc2cccc(C=C3SC(=S)NC3=O)c2)cc1C(C)(C)C` gave a melting point of 239 to 243 °C.

As to `CCNC(=O)c1ccc(N2CCN(Cc3cnc4c(c3)NC(=O)[C@@H]3CSCCN43)CC2)cc1`, the melting point was determined as 289 °C.

On to `COC(=O)CSC(C)c1ccc(-c2ccc(OC)cc2)cc1` (stereo not drawn), for which the melting point is 59 to 61 °C.

Molecule `CCOC(=O)COc1c(OC)cc(Cl)c2c1CN1CCc3cc(OC)c(OCc4ccccc4)cc3C1C2` (stereo not drawn) came in with a melting point of 134 °C.

Molecule `OC(c1ccccc1)(c1ccc(F)cc1)C1CCNCC1` (stereo not drawn) gave a melting point of 144 to 146 °C.

`CNn1cc(C(=O)O)c(=O)c2cc(F)c(N3CCC(N)C3)c(F)c21` (stereo not drawn) registered a melting point of 210 to 211 °C.

Take `COC(=O)c1ccc(S(C)(=O)=O)c(C(=O)NN)c1Cl`: the melting point lay within 85 to 95 °C.

Consider `C#CCOc1cc(-n2nc(C(C)(C)C)oc2=O)c(F)cc1Cl`, for which the melting point was in the range of 72 to 73 °C.

Molecule `COc1c(OCC(F)(F)F)ccnc1CSc1nc2ccc(C(F)(F)F)cc2[nH]1` came in with a melting point of 80 to 82 °C.

`CC(C)n1c(CCN2CCN(c3cccc(C(F)(F)F)c3)CC2)nc2cc(Br)c3ccccc3c21`: the melting point was in the range of 161 to 162 °C.

`Cc1ccc(-c2ccc3c(c2)C=C(CNc2ccc(CN(C)C4CCOCC4)cc2)CCO3)cc1`: the melting point lay within 158 to 160 °C.

The molecule `COc1ccc(C2=NN(C3CCN(S(=O)(=O)c4ccc(C)cc4)CC3)C(=O)C(C)(C)C2)cc1OC` returned a melting point of 161 to 164 °C.

`CN(C(=O)c1cn2ccc(-c3ccc(Cl)cc3)cc2n1)C(Cc1ccc(OCc2ccccc2)cc1)C(=O)O` (stereo not drawn) showed a melting point of 222 °C.

`Nc1ccc(N=Nc2ccc([N+](=O)[O-])c(C(F)(F)F)c2)cc1` returned a melting point of 136 °C.

`CON(O)C(=O)c1ccccc1[N+](=O)[O-]` yielded a melting point of 104 °C.

In the case of `CCN1C(=O)OCC1Cc1ccncc1` (stereo not drawn), the melting point lay in the range of 180 to 182 °C.

The molecule `OC1CSC(Oc2ccc(-c3ccco3)cc2)C(O)C1O` (stereo not drawn) registered a melting point of 200 °C.

In the case of `Cc1c(CCc2ccccc2)c(=O)oc2cc(OCC#N)cc(OCC#N)c12`, the melting point fell in the range of 179 to 183 °C.

With `COc1ccc(-c2cc(C(N)=O)c(=O)n(CC3CC3)n2)cc1`, the melting point is 182 to 183 °C.

In turn, `Cn1c(N)c(CN2CCN(c3cccc4c3OCCO4)CC2)c(=O)n1-c1ccccc1` yielded a melting point of 222 to 224 °C.

`O=C1CCCC(=O)N1c1ccc([N+](=O)[O-])cc1` returned a melting point of 207 to 209 °C.

With `O=C(O)CCc1ccccc1CNC(=O)C1Cc2ccccc2N1S(=O)(=O)c1ccc(-c2cccc(C(F)(F)F)c2)cc1` (stereo not drawn), the melting point was determined as 94 °C.

Molecule `CN(CCc1ccc(O)c(O)c1)C(=O)OCc1ccccc1` showed a melting point of 105 to 106 °C.

Molecule `O=[N+]([O-])c1cc(CO)c(CO)cc1Oc1ccc(F)cc1F` came in with a melting point of 124 °C.

For `CSC(Cc1ccc2oc(Cc3nc(-c4cccc(C)c4)oc3C)cc2c1)C(=O)O` (stereo not drawn), the melting point was 125 to 127 °C.

`COC(=O)c1cccc(-c2cc(-c3ccc(Cl)cc3)on2)c1`: the melting point lay in the range of 157 to 158 °C.

In turn, `Nc1cccn2c(Cl)cnc12` registered a melting point of 126 to 127 °C.

`O=C1CCC(c2ccc(-n3cccc3)cc2)=NN1` showed a melting point of 222 to 223 °C.

In the case of `CN=C(NC#N)NCCCSCc1nsc(NC(=N)N)n1`, the melting point is 117 to 120 °C.

In turn, `COc1ccccc1CC(=O)N1C[C@@H]2C(=O)CCC(c3ccccc3)(c3ccccc3)[C@@H]2C1` (racemic) had a melting point of 163 °C.

`CCOC(=O)Nc1cc2c(cn1)[nH]c1ccccc12`: the melting point fell in the range of 222 to 224 °C.

`O=C(NC(=O)c1cc(F)ccc1Cl)Nc1ccc(OC(F)(F)F)cc1` showed a melting point of 199 °C.

Consider `CCOC(=O)c1cn(-c2nc(NC(C)(C)C)c(F)cc2F)c2c(F)c(F)c(F)cc2c1=O`, for which the melting point fell in the range of 174 to 178 °C.

As to `Cn1nc(-c2ccccc2SCc2ccccc2)oc1=O`, the melting point is 137 to 140 °C.

On to `Cc1ccc(O)c(C)c1N`, for which the melting point lay within 177 to 179 °C.

As for `COC(=O)CN1CCC[C@H]1C(=O)N[C@@H](Cc1ccccc1)C(=O)N1CCC[C@H]1C(=O)O`, the melting point lay within 145 to 148 °C.

Regarding `CN1CCC2(CC1)OC(=O)c1ccccc12`, the melting point was in the range of 147 to 148 °C.

On to `CC(=O)c1ccc2c(c1)C(=O)c1ccccc1CN2`, for which the melting point fell in the range of 206 to 207 °C.

Molecule `CCc1cc(-c2ccc(-c3cc[nH]n3)cc2)ccc1OC` showed a melting point of 164 to 168 °C.

Regarding `CN1CCN(Cc2cc(C(=O)c3ccc(Cl)cc3)cc(C(C)(C)C)c2O)CC1`, the melting point is 131 to 132 °C.

`COc1cc2c(Nc3ccc(Cl)cc3F)ncnc2cc1OCCSc1ccncc1` returned a melting point of 182 to 186 °C.

`CCN(C(=O)c1ccc(Cl)c(Cl)c1)c1ccc(C)cc1CCC(=O)O` had a melting point of 107 to 109 °C.

`NNc1c(Cl)cc(C(F)(F)F)c(F)c1Cl` displayed a melting point of 50 to 51 °C.

`COc1ccc(OC(CCCN2C3CCC2CNC3)c2ccc(C#N)cc2)cc1OC` (stereo not drawn) yielded a melting point of 38 to 43 °C.

The molecule `O=C(O)c1cn(C2CC2)c2c(F)c(N3CC(CNC(=O)C(F)(F)F)C3)c(F)cc2c1=O` gave a melting point of 145 to 150 °C.

Molecule `O=C(Cl)c1ccc(C#Cc2ccccc2C(=O)Cl)cc1` showed a melting point of 79 to 85 °C.

`CC(C)(C)c1cc(NC(=O)c2csc(-c3ccc(N)cc3)n2)cc(C(C)(C)C)c1O` yielded a melting point of 267 to 268 °C.

On to `CC(=O)NC1=NCC(c2ccccc2)CN1` (stereo not drawn), for which the melting point lay in the range of 246 to 249 °C.

`CCOC(=O)c1ccc(-n2ccnc2)cc1` showed a melting point of 100 °C.

For `CCCCCCCC(=O)OC1CC(=O)NC1=O` (stereo not drawn), the melting point lay within 60.5 to 61 °C.

For the molecule `CCC(n1cncn1)C(O)(Cn1cncn1)c1c(F)cccc1F` (stereo not drawn), the melting point is 110 to 111 °C.

`NC(=O)c1nc(-c2cccnc2)nc2c1[nH]c(=O)n2Cc1ccccc1` registered a melting point of 334 to 335 °C.

For `O=C(O)c1cccc(C2Oc3ccccc3C(O)=C2Cc2ccccc2)c1` (stereo not drawn), the melting point is 210 to 212 °C.

In turn, `CCCCCCCCN1N=C(C)CC1=O` gave a melting point of 59 °C.

In turn, `C=CCNc1nc(N)nc2c1ncn2C1CC(F)C(CO)O1` (stereo not drawn) came in with a melting point of 128 to 129 °C.
